The text below walks through data of patent US20170191058A1, “PERFORIN 2 DEFENSE AGAINST INVASIVE AND MULTIDRUG RESISTANT PATHOGENS” (priority 2012, published 2017).

The test system of one assay is P-2. In words: P-2 expression in macrophages, BMDM/DC and microglia after LPS and IFN-γ. Format: cell-based, murine. Particulars: LPS and IFN-γ given together, microglia. The protocol: BMDM/DC were differentiated from murine bone marrow for 10 days in the presence GM-CSF and then stimulated with (FIG. 9A) LPS ([…]) and IFNγ (100 U/ml) or (FIG. 9B) poly(I:C) (3 mg/ml) for 48 hr. (FIG. 9C) BV2 microglial cells were stimulated for 24 hr with IFNγ (100 U/ml). (FIG. 9D) RAW cells were stimulated for 24 hr with LPS (Ing/ml) and IFNγ (100 U/ml). Cells were harvested at the indicated time points and analyzed for P-2 message expression by TAQMAN™ RT-PCR, relative to GAPDH.
RNA was extracted from cells according to RNeasy (Qiagen) instructions. 1 μg of RNA was converted to cDNA using QuantiTect Reverse Transcription Kit (Qiagen) RT-PCR was performed using TAQMAN® Gene Expression Assays (Applied Biosystems) for murine Mpeg-1 and GAPDH, as a housekeeping control gene. All assays were performed on Applied Biosystems 7300 PCR platform.

A further assay concerns P-2 mRNA. Briefly: P-2 mRNA expression in mEF by TAQMAN PCR after cytokine treatment. Format: cell-based, murine. Particulars: added singly, 14 hours. The protocol: (§1) Murine embryonic fibroblasts (FIG. 14A), a rectal cancer cell line (FIG. 14B), myoblast cell line (FIG. 14C), and an ovarian cell line (FIG. 14D) were treated for 14 hours with 100 U/ml interferon-α, interferon-β, and interferon-γ treated. LPS was treated at 1 ng/ml; IL-1α at 10 U/ml, IL-1β at 1 ng/ml, and TNFα at 20 ng/mL. A human embryonic kidney cell line (FIG. 14E) and cervical cancer cell line (FIG. 14F) were treated with human IFN-α at 150 U/ml, IFN-β and IFN-γ at 100 U/ml. The BV2 microglial cell line was stimulated with 100 U/ml of murine Interferon-γ for 14 hours to upregulate P-2 mRNA and protein. mEF treated with IFN-γ for 14 hours (mEF), or IFN-γ for 14 hours followed by 1 hour of treatment with […] MG-132 (mEF+MG132) (FIG. 14G). Human primary keratinocytes were analyzed for protein expression with indicated recombinant human IFN treatment (FIG. 14H). mEF were treated with E. coli or M. smegmatis. At indicated time points, cells were harvested and analyzed for P-2 mRNA and compared to uninfected controls by TAQMAN™ PCR. (FIG. 14I) mEF were either not stimulated, or stimulated for 14 hours with IFN-γ at 100 U/ml. After stimulation, mEF were infected with M. smegmatis and analyzed for colony forming units at indicated time points.
Recombinant murine IL-1α, IL-1β, TNFα, IFN-γ, IFN-α, IFN-β recombinant human IFN-γ, IFN-β were purchased from preprotech. Recombant human IFN-α was purchased from R&D systems. Murine […] was supplemented at 10 U/mL where indicated. Murine IL-1β was supplemented at 1 ng/ml. Murine TNFα was supplemented at 20 ng/ml. Murine IFN-α, IFN-β and IFN-γ was supplemented with 100 U/ml. Human IFN-α was supplemented where indicated in at a concentration of 150 U/ml where indicated. Human IFN-β and IFN-γ was supplemented at a concentration of 100 U/ml. LPS was added at a concentration of 1 ng/ml.
RNA was extracted from cells following RNeasy (Qiagen) instructions. One μg of RNA was converted to cDNA using QuantiTect Reverse Transcription kit (Qiagen) following supplier's protocol. qRT-PCR was performed using TAQMAN® Gene Expression Assays (Applied Biosystems) for murine Mpeg1 and GAPDH, with the later serving as a housekeeping control gene. For human tissues, human Mpeg1 and GapDH probes were utilized. All assays were performed on the Applied Biosystems 7300 PCR platform.

The next assay has as its system M. smegmatis. Briefly: Gentamycin protection assay: M. smegmatis in IFN-preinduced mEF. It counts as cell-based, Mycobacterium smegmatis. Particulars: uninduced mEF delayed by about 16 h. The protocol:
as §1, with “points. […]” for “points.”

In the next assay the test system is intracellular bacteria. In words: Gentamycin protection assay in various mouse and human cells and cell lines. Format: cell-based. Particulars: complementation assays. The protocol:
(§2) Mouse rectal carcinoma CMT-93 was transiently transfected with a P-2 siRNA pool, or with P-2-RFP. Scramble siRNA or RFP were also transfected and analyzed to serve as controls for P-2 siRNA and P-2-RFP respectively. All transfections were performed 24 hours prior to infection. 14 hours prior to infection, cells were incubated with 100 U/ml of species specific IFN-γ. At indicated time points after infection, cells were lysed and plated for CFU analysis. (FIGS. 16A-16D) mEF were transfected with P-2siRNA and complemented with siRNA resistant P-2-RFP cDNA 24 hours prior to infection. 14 hours prior to infection, interferon-γ was added. mEF were infected with late log phase S. typhimurium. At indicated time points mEFs were lysed and analyzed for colony forming units. […]
S. typhimurium strain LT2Z), Mycobacterium smegmatis, methicillin-resistant Staphylococcus aureus, and E. coli strain K12 were grown from glycerol stocks at 37° C. with shaking for 24 hours in Luria broth (S. typhimurium, S. aureus, and E. coli) or Middlebrook 7H9 broth (M. smegmatis). […] At indicated time points, cells were washed with PBS, lysed using 1% Igepal in ddH2O, diluted and plated in technical triplicate on LB agar plates (S. typhimurium, S. aureus, E. coli) or Middlebrook 7H11 plates (M. smegmatis) and CFU determined after sufficient colony growth. […]

The subject of another assay is Salmonella. Briefly: Gentamycin protection assay: intracellular Salmonella in mEF. Format: cell-based, Salmonella typhimurium. Particulars: P-2 siRNA co-transfected. On the procedure: as §2
S. typhimurium strain LT2Z), Mycobacterium smegmatis, methicillin-resistant Staphylococcus aureus, and E. coli strain K12 were grown from glycerol stocks at 37° C. with shaking for 24 hours in Luria broth (S. typhimurium, S. aureus, and E. coli) or Middlebrook 7H9 broth (M. smegmatis). […] At indicated time points, cells were washed with PBS, lysed using 1% Igepal in ddH2O, diluted and plated in technical triplicate on LB agar plates (S. typhimurium, S. aureus, E. coli) or Middlebrook 7H11 plates (M. smegmatis) and CFU determined after sufficient colony growth.

Assay [1] deals with M avium, MRSA, S. typhimurium, E. coli and M. smegmatis. In words: Gentamycin protection assay in RAW, BV2, BMDM/DC and PEM cells. Format: cell-based. Particulars: transfected cells vs vector control. On the procedure: Gentamicin protection assay: S. typhimurium strain LT2Z, Mycobacterium avium, Mycobacterium smegmatis (ATCC), methicllin resistant Staphylococcus aureus and K12 E. coli were grown from glycerol stocks at 37° C. with shaking for 16-18 hr in Luria broth (LB) (S. typhimurium, S. aureus, and E. coli) or Middlebrook 7H9 broth (Mycobacteria) prior to infection. For Salmonella, the culture was then diluted 1:33 in LB and grown for another 3 hours to induce invasive phenotype. Macrophages or microglial cells were plated (5×10^5 cells/well of a 12 well plate) and stimulated overnight with LPS (Ing/ml) and IFN-γ (100 U/ml). Cells were infected the next day at indicated MOI for 30 minutes (S. typhimurium,) or 1 hour (all other bacteria) in 37° C., 5% CO2 incubator. Cells were washed twice with PBS and fresh medium containing 50 μg/ml gentamicin was added. […] At the indicated timepoints after adding gentamicin, the cells were washed with PBS, lysed using 0.1% Triton-X in water, diluted and plated in triplicate on agar plates and CFU determined. […]
In addition to PEM, bone marrow-derived macrophage/dendritic cells (BMDM/BMDC) and macrophage (RAW264.7) and microglia (BV2) cell lines have potent intracellular killing mechanisms for phagocytosed MRSA, Mycobacteria, S. typhimurium, and E. coli as determined by the gentamycin protection assay (FIGS. 3A-31). […]

Consider IFNγ, for which the “P-2 mRNA and protein expression” value with P-2 was “upregulate P-2 mRNA and protein expression”. Besides, the “P-2 mRNA induction in mEF” value in the assay with P-2 mRNA is given as “up-regulates P-2 mRNA”. Moreover, the “time to kill intracellular M. smegmatis” value in the assay with M. smegmatis fell in the range of 1 to 5 h.

B1: P-2-GFP: P-2 fused via a linker at the C-terminus of its cytoplasmic domain to GFP, expressed by transfection (protein)
chain: DKPLGETGTTGFQICKNALKLPVLEVLPGGGWDNLRNVDMGRVMDLTYTNCKTTEDGQYIIPDEVYTIPQKESNLEMNSEVLESWMNYQSTTSLSINTELALFSRVNGKFSTEFQRMKTLQVKDQAVTTRVQVRNRIYTVKTTPTSELSLGFTKALMDICDQLEKNQTKMATYLAELLILNYGTHVITSVDAGAALVQEDHVRSSFLLDNQNSQNTVTASAGIAFLNIVNFKVETDYISQTSLTKDYLSNRTNSRVQSFGGVPFYPGITLETWQKGITNHLVAIDRAGLPLHFFIKPDKLPGLPGPLVKKLSKTVETAVRHYYTFNTHPGCTNVDSPNFNFQANMDDDSCDAKVTNFTFGGVYQECTELSGDVLCQNLEQKNLLTGDFSCPPGYSPVHLLSQTHEEGYSRLECKKKCTLKIFCKTVCEDVFRVAKAEFRAYWCVAAGQVPDNSGLLFGGVFTDKTINPMTNAQSCPAGYIPLNLFESLKVCVSLDYELGFKFSVPFGGFFSCIMGNPLVNSDTAKDVRAPSLKKCPGGFSQHLAVISDGCQVSYCVKAGIFTGGSLLPVRLPPYTKPPLMSQVATNTVIVTNSETARSWIKDPQTNQWKLGEPLELRRAMTVIHGDSNGMSGGEAAGITLGVTIALGIVITLAIYGTRKYKKKEYQEIEEQESLVGSLATDATVLNGEEDPSPA
modifications: left off: large carriers
Consider B1, for which, in the assay with intracellular bacteria, the “activity of transfected fusion protein in killing of intracellular bacteria” value was “functional in killing of intracellular bacteria”. Besides, in the assay with Salmonella, the “complementation of endogenous P-2 knock down in mEF: killing activity” value was “fully reconstitutes bactericidal activity”. In addition, the “effect of overexpression on intracellular killing” value in assay [1] is given as “increases bactericidal activity”.
